Results on 20 compounds are retold here after EP0297661B1, “[(Bicyclic heterocyclyl)methyl and -hetero] substituted hexahydro-1H-azepines and pyrrolidines” (JANSSEN PHARMACEUTICA N.V., priority 1987, dated 1989).

This assay relates to compound 48/80-induced lethality. Briefly: Protection of rats from compound 48/80-induced lethality. It counts as in vivo. The following applies: Rattus norvegicus; male Wistar rats; test compound subcutaneously or orally (route per compound not stated); one hour later compound 48/80 0.5 mg/kg intravenously; dose protecting 50% of animals, survival after 4 hours; read-out: compound 48/80 lethality test in rats-ED₅₀ in mg/kg body weight. From the text: Protection of rats from compound 48/80-induced lethality.
Compound 48/80, a mixture of oligomers obtained by condensation of 4-methoxy-N-methylbenzeneethanamine and formaldehyde has been described as a potent histamine releasing agent (Int. Arch. Allergy, 13, 336 (1958)). The protection from compound 48/80-induced lethal circulatory collapse appears to be simple way of evaluating quantitatively the antihistaminic activity of test compounds. Male rats of an inbred Wistar strain, weighing 240-260 g were used in the experiment. After overnight starvation the rats were transferred to conditioned laboratories (temp. = 21 ± 1°C, relative humidity = 65 ± 5%). The rats were treated subcutaneously or orally with a test compound or with the solvent (NaCl solution, 0.9%). One hour after treatment there was injected intravenously compound 48/80, freshly dissolved in water, at a dose of 0.5 mg/kg (0.2 ml/100 g of body weight). In control experiments, wherein 250 solvent-treated animals were injected with the standard dose of compound 48/80, not more than 2.8% of the animals survived after 4 hours. Survival after 4 hours is therefore considered to be a safe criterion of a protective effect of drug administration. Said ED₅₀-values are the values in mg/kg body weight at which the tested compounds protect 50% of the tested animals against […] lethality.
Take `Cc1ccc(Cn2c(NC3CCN(CCc4c(C)nc5ccccn5c4=O)C3)nc3cccnc32)o1` (centres unmarked) [compound 94]: the ED50 was 0.04 mg/kg.

For `c1csc(Cn2c(NC3CCN(CCNc4nc5cnccc5[nH]4)C3)nc3ccccc32)c1` (centres unmarked) [compound 186], the ED50 was found to be 0.01 mg/kg.

Regarding `Cc1ccc(Cn2c(NC3CCN(CCNc4nc5cnccc5[nH]4)C3)nc3cccnc32)o1` (centres unmarked) [compound 187, N-[1-[2-[(1H-imidazo[4,5-c]pyridin-2-yl)amino]ethyl]-3-pyrrolidinyl]-3-[(5-methyl-2-furanyl)methyl]-3H-imidazo[4,5-b]pyridin-2-amine], the ED50 is 0.04 mg/kg.

As to `COc1ccc(CCN2CCCC(Nc3nc4cccnc4n3Cc3ccc(C)o3)CC2)cc1` (centres unmarked) [compound 68], the ED50 was determined as 0.04 mg/kg.

Consider `COc1ccc(CCN2CCC(Nc3nc4cccnc4n3Cc3ccccn3)C2)cc1` (centres unmarked) [compound 61], for which the ED50 was 0.08 mg/kg.

Take `Cc1ccc(Cn2c(NC3CCN(CCc4c(C)nc5n(c4=O)CCCC5)C3)nc3ccccc32)o1` (centres unmarked) [compound 102]: the ED50 was 0.04 mg/kg.

Consider `Fc1ccc(Cn2c(NC3CCN(CCNc4nccs4)C3)nc3ccccc32)cc1` (centres unmarked) [compound 168, 1-[(4-fluorophenyl)methyl]-N[1-[2-(2-thiazolylamino)ethyl]-3-pyrrolidinyl]-1H-benzimidazol-2-amine], for which the ED50 is 0.08 mg/kg.

Take `O=c1[nH]c2ccccc2n1CCN1CCC(Nc2nc3ccccc3n2Cc2ccc(F)cc2)C1` (centres unmarked) [compound 125, 1-[2-[3-[[1-[(4-fluorophenyl)methyl]-1H-benzimidazol-2-yl]amino]-1-pyrrolidinyl]ethyl]-1,3-dihydro-2H-benzimidazol-2-one]: the ED50 was determined as 0.08 mg/kg.

As to `CC(C)N1CCC(Nc2nc3ccccc3n2Cc2ccc(F)cc2)C1` (centres unmarked) [compound 204, 1-[(4-fluorophenyl)methyl]-N-[1-(1-methylethyl)-3-pyrrolidinyl]-1H-benzimidazol-2-amine], the ED50 was 0.04 mg/kg.

In the case of `Cc1nc2ccccn2c(=O)c1CCN1CCC(Nc2nc3cccnc3n2Cc2cscn2)C1` (centres unmarked) [compound 95], the ED50 is 0.04 mg/kg.

`Cc1ccc(Cn2c(NC3CCCN(CCO)CC3)nc3ccccc32)o1` (centres unmarked) [compound 211, hexahydro-4-[[1-[(5-methyl-2-furanyl)methyl]-1H-benzimidazol-2-yl]amino]-1H-azepine-1-ethanol]: the ED50 turned out to be 0.04 mg/kg.

As to `O=c1oc2ccccc2cc1CCN1CCCC(Nc2nc3cccnc3n2Cc2ccco2)CC1` (centres unmarked) [compound 109, 3-[2-[4-[[3-(2-furanylmethyl)-3H-imidazo[4,5-b]pyridin-2-yl]-amino]hexahydro-1H-azepin-1-yl]ethyl]-2H-1-benzopyran-2-one], the ED50 was determined as 0.04 mg/kg.

Take `c1coc(Cn2c(NC3CCCNCC3)nc3cccnc32)c1` (centres unmarked) [compound 49, 3-(2-furanylmethyl)-N-(hexahydro-1H-azepin-4-yl)-3H-imidazo[4,5-b]pyridin2-amine]: the ED50 came out at 0.04 mg/kg.

As for `Fc1ccc(Cn2c(NC3CCN(CCNc4ncccn4)C3)nc3ccccc32)cc1` (centres unmarked) [compound 166, 1-[(4-fluorophenyl)methyl]-N-[1-[-(2-pyrimidinylamino)ethyl]-3-pyrrolidinyl]-1H-benzimidazol-2-amine], the ED50 turned out to be 0.08 mg/kg.

Turning to `Cc1ccc(Cn2c(NC3CCN(CCc4c(C)nc5ccccn5c4=O)C3)nc3ccccc32)o1` (centres unmarked) [compound 96], the ED50 came out at 0.04 mg/kg.

Take `CN1CCCC(Nc2nc3cccnc3n2Cc2ccco2)CC1` (centres unmarked) [compound 196, 3-(2-furanylmethyl)-N-(hexahydro-1-methyl-1H-azepin-4-yl)-3H-imidazo[4,5-b]-pyridin-2-amine]: the ED50 was 0.02 mg/kg.

In the case of `CNC(=O)NCCN1CCC(Nc2nc3ccccc3n2Cc2ccc(F)cc2)C1` (centres unmarked) [compound 188, N-[2-[3-[[1-[(4-fluorophenyl)methyl]-1H-benzimidazol-2-yl]amino]-1-pyrrolidinyl]ethyl]-N′-methylurea], the ED50 was 0.01 mg/kg.

Regarding `Cc1ccc(Cn2c(NC3CCCN(C)CC3)nc3ccccc32)o1` (centres unmarked) [compound 198, N-(hexahydro-1-methyl-1H-azepin-4-yl)-1-[(5-methyl-2-furanyl)methyl]-1H-benzimidazol-2-amine], the ED50 was 0.04 mg/kg.

Regarding `Cc1nc2n(c(=O)c1CCN1CCC(Nc3nc4cccnc4n3Cc3ccccn3)C1)CCCC2` (centres unmarked) [compound 99], the ED50 stood at 0.04 mg/kg.

Turning to `Cc1ccc(Cn2c(NC3CCCN(C)CC3)nc3cccnc32)o1` (centres unmarked) [compound 207, N-(hexahydro-1-methyl-1H-azepin-4-yl)-3-[(5-methyl-2-furanyl)methyl]-3H-imidazo[4,5-b]pyridin-2-amine], the ED50 stood at 0.01 mg/kg.
